Measured values from PubChem BioAssay AID720547 (The Scripps Research Institute Molecular Screening Center, 2013).
The source made the active and inactive calls.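 How the source made its calls: active means compound flagged as a likely artifact in this counterscreen, with IC50 of 10 µM or lower; inactive means IC50 above 10 µM.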

Tested on: HEK293 Gal4-VP16 luciferase reporter counterscreen, luminescence
Experiment: Gal4-VP16 luciferase reporter inhibitors, dose response, counter-screen for COUP-TFII inhibitor project, cell-based, luminescence, HEK293 (AID 720547);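 further: potency for lowering the luciferase signal driven by Gal4-VP16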

Compound	IC50
OC[C@@H]1CN(Cc2ccc(-c3ccccc3)cc2)C[C@H](n2cnc3c(NCc4ccc(F)cc4)ncnc32)O1	83.4 µM (inactive)
COc1ccc(-n2nnnc2C(c2cc3ccccc3o2)N2CCC(n3c(=O)[nH]c4ccccc43)CC2)cc1 (centres undefined)	12.7 µM (inactive)
c1ccc(C(Cc2nc(-c3ccncc3)no2)c2ccccc2)cc1	> 85.4 µM (inactive)
CCN1/C(=C\c2ccc3ccccc3[n+]2CC)Sc2cc(C)ccc21	53.9 µM (inactive)
CSc1ccccc1OCc1cc(C(=O)N2CCC(c3ccncc3)CC2)no1	> 85.4 µM (inactive)
Cn1c2ccccc2c(=O)c2cc(C#CC3(O)CCCCC3)ccc21	> 85.4 µM (inactive)
COc1cc2c(cc1OC)C1C(=O)c3ccc4c(c3OC1CO2)CC(C(C)C)O4 (centres undefined)	> 28.5 µM (inactive)
CCCc1ccc(C(=O)O/N=C(\N)c2ccccn2)cc1	36.7 µM (inactive)
Cc1cc(S(=O)(=O)NCc2ccncc2)c(C)cc1Br	> 85.4 µM (inactive)
Cc1ccc(Cn2ncc3c(N4CCN(Cc5ccc(Cl)cc5)CC4)ncnc32)cc1	> 85.4 µM (inactive)
CCC(C)C(NC(=O)CCCNC(=O)CCC(=O)OC1O[C@H]2OC3(C)CC[C@H]4[C@H](C)CCC(C1C)C24OO3)C(=O)O (some centres undefined)	> 85.4 µM (inactive)
CCN(CC)S(=O)(=O)c1ccc(/C=C/C(=O)Nc2ccc(Br)cc2F)cc1	> 85.4 µM (inactive)
COc1ccc(-n2cc(-c3ccc(C)cc3)[n+]3c2SCC3)cc1	> 85.4 µM (inactive)
COc1ccc(CCNc2ncnc3sccc23)cc1OC	> 85.4 µM (inactive)
Cc1nn(C)c(C)c1CN(Cc1nc(CCC(C)C)no1)C(C)C	> 85.4 µM (inactive)
Cc1ccc(-c2cn(-c3ccccc3)c3[n+]2CCCS3)cc1	> 85.4 µM (inactive)
OC[C@@H]1CN(Cc2ccc(-c3ccccc3)cc2)C[C@H](n2cnc3c(NC4CCCC4)ncnc32)O1	53.4 µM (inactive)

Compound	IC50
COc1cc(NC(=O)COc2cc(O)c3c(c2)OC(C)(C)CC3=O)cc(OC)c1OC	> 28.5 µM (inactive)
O=C(NC(Nc1nc2ccc([N+](=O)[O-])cc2s1)(C(F)(F)F)C(F)(F)F)c1cccnc1	> 85.4 µM (inactive)
CCC(C)NC(=O)CCC(=O)OC1O[C@H]2OC3(C)CC[C@H]4[C@H](C)CCC(C1C)C24OO3 (some centres undefined)	> 85.4 µM (inactive)
CN(C)c1cc[n+](CC(=O)c2ccc(-c3ccccc3)cc2)cc1	> 85.4 µM (inactive)
COc1ccc(N2CCN(c3ncnc4c3[nH]c3ccccc34)CC2)cc1	> 85.4 µM (inactive)
COc1ccc(Cl)cc1Nc1nc(-c2sc(NC(=O)C(C)(C)C)nc2C)cs1	> 85.4 µM (inactive)
Nc1nc2ccccc2cc1C(=O)NCc1ccc(-c2ccccc2)cc1	> 85.3 µM (inactive)
Cc1ccc(-n2nc3c(=O)n(C(C)C(=O)NCCCc4ccccc4)nc(C)c3c2C)cc1 (centres undefined)	> 85.4 µM (inactive)
COc1ccc(NS(=O)(=O)c2ccc(-c3coc(C)n3)cc2)cc1OC	> 85.4 µM (inactive)
Cn1c(=O)c2[nH]c(CCCCCCCCc3nc4ccccc4[nH]3)nc2n(C)c1=O	> 28.5 µM (inactive)
Oc1ccc(-[n+]2c(-c3ccccc3)cc(-c3ccccc3)cc2-c2ccccc2)cc1	12.6 µM (inactive)
C=CC[n+]1c(-c2ccc(Cl)cc2Cl)csc1Nc1c(C)n(C)n(-c2ccccc2)c1=O	> 85.4 µM (inactive)
COc1ccc2c(c1)[nH]c1c(N3CCN(Cc4ccc5c(c4)OCO5)CC3)ncnc12	39.6 µM (inactive)
Cc1[nH]nc(C(F)(F)F)c1N=NN1CCOCC1	51.6 µM (inactive)
O=C(CSc1nnnn1C1CC2CCC1C2)Nc1ccnc2ccccc12 (centres undefined)	> 85.4 µM (inactive)
CC(C)(C)c1ccc(CSc2cnn(C(C)(C)C)c(=O)c2Cl)cc1	> 85.4 µM (inactive)
Cc1nc2c(-c3ccc(Cl)cc3)cnn2c(N)c1-c1ccc(F)cc1	> 85.4 µM (inactive)
